Source: patent publication US20150283127A1, “SAQUINAVIR-NO FOR IMMUNOMODULATION” (ONCONOX APS, priority 2012, published 2015)

What was measured:
[1] = system: murine SPC; assay: Viability of murine SPC (MTT mitochondrial activity assay); assay type: cell-based, mouse; details: minor compared with the influence on cytokines
Excerpt: (§1) Experimental animals (C57BL/6 mice, BALB/c mice and Dark Agouti rats) were obtained from the Animal House Facility of the Institute for Biological Research “Sinisa Stanković”, Belgrade, Serbia. Spleen cells (SPC) were isolated from murine spleens and lymph node cells (LNC) were obtained from rat cervical lymph nodes of untreated animals. Draining lymph node cells (DLNC) were obtained from popliteal lymph nodes 8-10 days after immunization of rats with myelin basic protein (guinea pig MBP, kind gift from professor Alexander Fluegel, University of Goettingen, Germany) and complete Freund's adjuvant (CFA, Difco, Detroit, Mich.). The organs were mechanically disrupted, passed through 40-μm nylon mesh filter and the resulting suspension was collected by centrifugation. Red blood cells from single cell suspensions obtained from spleens were lysed using RBC Lysis Buffer (eBioscience, San Diego, Calif.). […] Obtained purity of CD4 population was more than 97% as determined by flow cytometry. […]
(§2) In order to assess the viability of SPC, LNC, DLNC and SCC by mitochondrial activity assay we used the mitochondrial-dependent reduction of 3-(4,5-dimethylthiazol-2-yl)-2,5-[…] bromide (MTT) to formazan. […] The absorbances in MTT assay were measured at […], with a correction at 690 nm, using an automated microplate reader (LKB 5060-006, LKB, Vienna, Austria).

[2] = system: DLNC; assay: Viability of rat DLNC (MTT); assay type: cell-based; details: DLNC restimulated with MBP
Excerpt: Experimental animals (C57BL/6 mice, BALB/c mice and Dark Agouti rats) were obtained from the Animal House Facility of the Institute for Biological Research “Sinisa Stanković”, Belgrade, Serbia. Spleen cells (SPC) were isolated from murine spleens and lymph node cells (LNC) were obtained from rat cervical lymph nodes of untreated animals. Draining lymph node cells (DLNC) were obtained from popliteal lymph nodes 8-10 days after immunization of rats with myelin basic protein (guinea pig MBP, kind gift from professor Alexander Fluegel, University of Goettingen, Germany) and complete Freund's adjuvant (CFA, Difco, Detroit, Mich.). The organs were mechanically disrupted, passed through 40-μm nylon mesh filter and the resulting suspension was collected by centrifugation. […] Obtained purity of CD4 population was more than 97% as determined by flow cytometry. […]
as §2
(§3) Next, we determined the influence of Saq-NO on encephalitogen-specific generation of IFN-g and IL-17. […]

[3] = system: rat LNC; assay: Cytokine generation (ELISA) in ConA-stimulated rat LNC; assay type: cell-based; details: 24 hours, vs untreated control cells
Excerpt: (§4) Experimental animals (C57BL/6 mice, BALB/c mice and Dark Agouti rats) were obtained from the Animal House Facility of the Institute for Biological Research “Sinisa Stanković”, Belgrade, Serbia. Spleen cells (SPC) were isolated from murine spleens and lymph node cells (LNC) were obtained from rat cervical lymph nodes of untreated animals. Draining lymph node cells (DLNC) were obtained from popliteal lymph nodes 8-10 days after immunization of rats with myelin basic protein (guinea pig MBP, kind gift from professor Alexander Fluegel, University of Goettingen, Germany) and complete Freund's adjuvant (CFA, Difco, Detroit, Mich.). […] Obtained purity of CD4 population was more than 97% as determined by flow cytometry. […]
Cytokine concentration in cell culture supernatants was determined by sandwich ELISA using MaxiSorp plates (Nunc, Rochild, Denmark) and anti-cytokine paired antibodies according to the manufacturer's instructions. Samples were analyzed in duplicate for murine/rat IL-17, murine IL-10, murine TNF, murine IL-4 (eBioscience), murine IFN-γ, rat IFN-γ, rat IL-4 (R&D, Minneapolis, Minn.), rat IL-10 and rat TNF (BD Biosciences). The results were calculated using standard curves made on the basis of known concentrations of the appropriate recombinant cytokines. […]

[4] = system: murine CD4+ cells; assay: Viability of murine CD4+ cells; assay type: cell-based, mouse; details: 24 hours; effect less than on cytokine generation
Description: In order to assess the viability of SPC, LNC, DLNC and SCC by mitochondrial activity assay we used the mitochondrial-dependent reduction of 3-(4,5-dimethylthiazol-2-yl)-[…] (MTT) to formazan. At the end of appropriate treatments, SPC and LNC were collected in tubes, spun down, supernatants removed and the cell pellets dissolved in […] MTT (Sigma-Aldrich) solution. Incubation with MTT lasted for 30 minutes at 37° C. and cells were centrifuged once more. DMSO was added to the pellets to dissolve the formazan crystals. The absorbances in MTT assay were measured at […], with a correction at 690 nm, using an automated microplate reader (LKB 5060-006, LKB, Vienna, Austria).
CD4+ cells were purified from C57BL/6 SPC and stimulated with anti-CD3 and anti-CD28 antibodies in the presence of various concentrations of Saq-NO for 24 hours. The influence of Saq-NO on cytokine generation was compared to its influence on CD4+ cell viability and to the influence of Saq on the same parameters. […] Thus, Saq-NO directly affects T cell cytokine production.

[5] = system: rat LNC; assay: Viability of rat LNC (MTT mitochondrial activity assay); assay type: cell-based; details: ConA, 24 hours, difference not statistically significant
Excerpt: as §1, §2

[6] = system: SCC; assay: IFN-g and IL-17 release from rat spinal cord infiltrating cells (SCC); assay type: cell-based; details: unstimulated SCC isolated at the peak of EAE
Excerpt: as §4
Cytokine concentration in cell culture supernatants was determined by sandwich ELISA using MaxiSorp plates (Nunc, Rochild, Denmark) and anti-cytokine paired antibodies according to the manufacturer's instructions. Samples were analyzed in duplicate for murine/rat IL-17, murine IL-10, murine TNF, murine IL-4 (eBioscience), murine IFN-γ, rat IFN-γ, rat IL-4 (R&D, Minneapolis, Minn.), rat IL-10 and rat TNF (BD Biosciences). The results were calculated using standard curves made on the basis of known concentrations of the appropriate recombinant cytokines.
as §3

[7] = system: melanoma, astrocytoma, prostate cancer cells and various human multidrug resistant tumor cell lines; details: cited from earlier work
[8] = mice subjected to the treatment; cited from earlier work
[9] = system: peripheral blood mononuclear cells; details: concentrations between 5 and 20 mM; cited from earlier work
[10] = system: human PBMC; details: PMA plus ionomycin, cited from earlier work
[11] = system: spleen cells; details: ex vivo, cited from earlier work

Compound	SPC viability [1]	DLNC viability [2]	Release of the examined cytokines IFN-g, IL-17, IL-10 and TNF [3]	CD4+ cell viability [4]	LNC viability [5]	IFN-g and IL-17 release [6]	Anti-cancer properties in comparison to Saq [7]	Toxicity in mice [8]	PHA or anti-CD3-induced proliferation [9]	TNF-alpha synthesis ([10]; 10 to 20 μM)	Synthesis of IL-2 and IFN-gamma production ([10]; concentration between 10 and 20 μM)	IL-1 beta, IL-10 and TNF-alpha production ([11]; in vivo exposure)	IFN-gamma and IL-2 secretion by spleen cells vs control mice ([11]; mice previously treated)
CC(C)(C)NC(=O)C1C[C@@H]2CCCC[C@@H]2CN1CC(O[N+](=O)[O-])[C@H](Cc1ccccc1)NC(=O)C(CC(N)=O)NC(=O)c1ccc2ccccc2n1 (stereo partly shown) [Saq-NO, nitric ester of Saquinavir]	statistically significantly inhibited	much less than its influence on IFN-g and IL-17 production	dose-dependently inhibited	statistically significantly inhibited	affected only with the highest dose	potently inhibited	superior	no toxicity					
CC(C)(C)NC(=O)[C@@H]1C[C@@H]2CCCC[C@@H]2CN1C[C@@H](O)[C@H](Cc1ccccc1)NC(=O)[C@H](CC(N)=O)NC(=O)c1ccc2ccccc2n1 [Saq, (2S)—N-[(2S,3R)-4-[(3S)-3-(tert-butylcarbamoyl)-decahydroisoquinolin-2-iy]-3-hydroxy-1-phenylbutan-2-il]-2-(quinolin-2-ylformamido)butanediamide, reference compound]									inhibited	without influencing	downregulate	not modified	secreted more
